Results: ChEMBL document CHEMBL1201862, “PubChem BioAssay data set” (2004)
The source made the active and inactive calls.

Legend:
[1] = Luminescence Cell-Based Dose Confirmation HTS to Identify Activators of 5'UTR Stem-Loop Driven Alpha-Synuclein mRNA Translation in H4 Neuroglioblastoma Cells. [Related pubchem assays: 1829 (Project Summary), 1814 (Primary HTS)]; assay type: functional
[2] = Luminescence Cell-Based Dose Response HTS to Identify Activators of Luciferase Translation or Activity in H4 […] Cells. [Related pubchem assays: 1829 (Project Summary), 1814 (Primary HTS)]; assay type: functional
H4 = assay: Luminescence Cell-Based Dose Response HTS to Identify Activators of 5'UTR Stem-Loop Driven Prion Protein mRNA Translation in H4 Neuroglioblastoma Cells. [Related pubchem assays: 1829 (Project Summary), 1814 (Primary HTS)]; assay type: functional; conditions: Homo sapiens
Transthyretin = Transthyretin (Homo sapiens, UniProt P02766); assay: Luminescence-based cell-based high throughput dose response assay to identify activators of Transthyretin (TTR) transcription.; assay type: functional
Protein skinhead-1 = target: T1, Protein skinhead-1 (Caenorhabditis elegans, UniProt P34707); assay type: functional
T1 sequence (P34707 whole entry): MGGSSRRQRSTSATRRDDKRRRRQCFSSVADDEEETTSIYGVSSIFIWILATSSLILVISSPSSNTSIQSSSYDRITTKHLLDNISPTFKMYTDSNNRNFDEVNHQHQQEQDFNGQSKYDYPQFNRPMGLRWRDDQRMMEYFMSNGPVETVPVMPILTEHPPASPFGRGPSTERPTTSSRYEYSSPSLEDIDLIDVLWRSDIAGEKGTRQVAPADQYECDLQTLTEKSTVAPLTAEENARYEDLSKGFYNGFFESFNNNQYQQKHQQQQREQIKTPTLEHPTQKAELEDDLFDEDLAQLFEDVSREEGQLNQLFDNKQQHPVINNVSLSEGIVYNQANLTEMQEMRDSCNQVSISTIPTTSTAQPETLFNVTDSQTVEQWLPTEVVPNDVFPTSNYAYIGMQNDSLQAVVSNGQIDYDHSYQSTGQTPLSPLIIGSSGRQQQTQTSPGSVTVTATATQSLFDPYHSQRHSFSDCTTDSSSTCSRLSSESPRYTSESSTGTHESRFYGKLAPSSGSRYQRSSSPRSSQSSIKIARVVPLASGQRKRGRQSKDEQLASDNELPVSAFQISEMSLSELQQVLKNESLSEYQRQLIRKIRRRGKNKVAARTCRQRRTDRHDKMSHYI

[3] = target: T2, Oxysterols receptor LXR-beta (Homo sapiens, UniProt P55055); assay type: functional, cell-based;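 note: Cell-based luminescence dose-response assay of agonist activity at LXR, run as a confirmatory counterscreen to a daf-12 agonist screen; HEK293 cells with Gal4-LXR fusion and GAL4-driven luciferase reporter; agonist potency from rising luciferase signal of a Gal4-LXR reporter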
T2 sequence (P55055 whole entry): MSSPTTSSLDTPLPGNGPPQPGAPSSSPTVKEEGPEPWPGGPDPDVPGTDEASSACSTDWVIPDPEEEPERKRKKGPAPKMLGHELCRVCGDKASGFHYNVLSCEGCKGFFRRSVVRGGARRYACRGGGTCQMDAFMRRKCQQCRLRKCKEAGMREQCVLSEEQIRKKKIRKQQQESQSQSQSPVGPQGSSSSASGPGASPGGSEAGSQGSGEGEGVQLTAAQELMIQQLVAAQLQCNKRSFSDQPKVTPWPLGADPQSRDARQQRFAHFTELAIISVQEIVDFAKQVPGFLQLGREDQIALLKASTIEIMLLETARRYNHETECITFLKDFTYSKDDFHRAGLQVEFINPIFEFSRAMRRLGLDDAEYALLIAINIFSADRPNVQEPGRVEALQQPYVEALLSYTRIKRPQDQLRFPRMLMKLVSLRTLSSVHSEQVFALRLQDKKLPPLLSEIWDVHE

Kallikrein-7 = Kallikrein-7 (Homo sapiens, UniProt P49862); assay: Fluorescence Intensity-based biochemical primary high throughput dose response assay to identify activators of kallikrein-7 (K7) zymogen.
Chain of Kallikrein-7 (P49862 whole entry): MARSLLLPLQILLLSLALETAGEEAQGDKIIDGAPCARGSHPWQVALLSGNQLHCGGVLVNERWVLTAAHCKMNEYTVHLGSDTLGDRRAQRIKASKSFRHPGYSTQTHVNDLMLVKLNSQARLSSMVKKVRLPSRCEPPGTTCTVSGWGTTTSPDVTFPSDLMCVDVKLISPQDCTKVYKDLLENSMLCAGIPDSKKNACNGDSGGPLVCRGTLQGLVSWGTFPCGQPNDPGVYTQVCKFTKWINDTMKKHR

[4] = inhibitors of non-replicating M. tuberculosis, dose response, luciferase, dry powder (AID 651619); assay type: functional; conditions: Mycobacterium tuberculosis
[5] = HepG2 hepatoma cell viability loss – plate reader, dry powder, cytotoxicity control, dose response (AID 651947); assay type: functional, cell-based
[6] = HeLa cell viability loss – plate reader, dry powder, cytotoxicity control, dose response (AID 651946); assay type: functional, cell-based
[7] = inhibitors of non-replicating M. tuberculosis, dose response, luciferase, dry powder (AID 651620); assay type: functional; conditions: Mycobacterium tuberculosis
[8] = embryonic kidney cell viability loss – CellTiter-Glo luminescence, dry powder, set 20, cytotoxicity control, dose response (AID 1117293); assay type: functional, cell-based; conditions: HEK293
[9] = Dd2 parasite growth inhibition in erythrocytes – SYBR Green, dry powder samples, set 9, dose response (AID 1159568); assay type: functional, cell-based
[10] = Single fluorophore orthopox expression reporter, late gene expression Measured in Cell-Based and Microorganism Combination System Using Plate Reader - 2142-08_Inhibitor_Dose_DryPowder_Activity.; assay type: functional
[11] = lung carcinoma cell viability loss – CellTiter-Glo luminescence, dry powder, set 17, dose response (AID 1117284); assay type: functional, cell-based; conditions: A549
[12] = inhibitors of orthopox intermediate gene expression, dose response, cell-based, single fluorophore reporter, dry powder (AID 1117271); assay type: functional
[13] = Orthopox viral replication plaque formation Measured in Cell-Based and Microorganism Combination System Using Imaging - 2142-05_Inhibitor_Dose_DryPowder_Activity.; assay type: functional
[14] = target: RNA-editing ligase 1, mitochondrial (Trypanosoma brucei brucei, UniProt P86926); assay: inhibition of trypanosome RNA editing ligase – biochemical, fluorescence, Trypanosoma brucei, dose response (AID 1117295); assay type: functional
Chain of RNA-editing ligase 1, mitochondrial (P86926 whole entry): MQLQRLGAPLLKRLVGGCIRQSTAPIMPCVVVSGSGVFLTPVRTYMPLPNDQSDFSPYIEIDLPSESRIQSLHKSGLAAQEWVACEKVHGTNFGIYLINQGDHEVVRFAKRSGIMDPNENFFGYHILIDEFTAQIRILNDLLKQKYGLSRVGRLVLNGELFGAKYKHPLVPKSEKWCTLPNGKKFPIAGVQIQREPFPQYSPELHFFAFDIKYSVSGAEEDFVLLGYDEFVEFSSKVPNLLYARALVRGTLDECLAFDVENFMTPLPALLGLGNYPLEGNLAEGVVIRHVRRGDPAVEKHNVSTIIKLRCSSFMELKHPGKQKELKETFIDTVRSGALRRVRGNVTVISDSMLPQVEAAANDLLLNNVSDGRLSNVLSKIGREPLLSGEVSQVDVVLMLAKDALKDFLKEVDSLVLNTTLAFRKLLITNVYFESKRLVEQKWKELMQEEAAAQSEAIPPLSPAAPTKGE

SMILES: Cc1c(Br)c(C(=O)N2CCc3ccccc32)nn1C
- EC50 [1]: 11.7 µM (active)
- EC50 [2]: 6.16 µM (active)
- EC50 (H4): 99.2 µM (active)
- EC50 (Transthyretin): > 167 µM (inactive)

SMILES: CNc1ccc(C=C2C=Cc3ccccc32)cc1
- IC50 (Protein skinhead-1): 20.5 µM (active)
- EC50 [3]: > 67.6 µM (inactive)
- EC50 (cells): > 67.6 µM (inactive)

SMILES: COC(=O)c1ccc(N2C(c3cc(OC)cc(OC)c3)=Cc3ccc(-c4ccc(C(N)=O)cc4)cc3C2CC(=O)C2CC2)cc1 (centres undefined)
- EC50 (Kallikrein-7): > 7.72 µM (active)

SMILES: c1ccc(Sc2nnc(-c3ccccc3)o2)cc1
- IC90 [4]: 1 µM (active)
- AC50 [5]: 42.9 µM (active)
- AC50 [6]: > 52 µM (inactive)
- IC90 [7]: 1 µM (active)

SMILES: O=S(=O)(Nc1cc(C(F)(F)F)ccc1N1CCCCC1)c1ccc(-c2ccccc2)cc1
- AC50 [8]: 0.852 µM (active)

SMILES: O=C(Nc1ccccc1F)N1CCCCN2[C@H](C1)[C@H](c1ccc(/C=C/c3ccccc3)cc1)[C@@H]2CO
- AC50 [9]: 3.61 µM (active)

SMILES: Cc1ccc(-c2ccc(CN(C)C[C@@H]3Oc4cc(C#C[C@@H](C)O)ccc4S(=O)(=O)N([C@@H](C)CO)C[C@@H]3C)cc2)cc1
- AC50 [10]: 1.13 µM (active)
- AC50 [11]: > 52 µM (inactive)
- AC50 [12]: 1.95 µM (active)
- AC50 [13]: 1.76 µM (active)

SMILES: COC(=O)C1=C(C)N(Cc2ccc(C(F)(F)F)cc2)C(NCc2ccc(OC)cc2)=NC1c1ccccc1C(F)(F)F (centres undefined)
- IC50 [14]: > 96.6 µM (inactive)
